# Columns and labels:
# [1] = molecular target: HSP90a (Homo sapiens, UniProt P07900); test: In vitro HSP90 inhibition assay (Reaction Biology Corporation); type: biochemical
# Method: The HSP90 inhibitory activity of the synthesized adduct was assessed by Reaction Biology Corporation, Malvern, PA (http://www.reactionbiology.com).
# An in-vitro experiment was performed to assess the inhibitory effect of the synthesized adducts on the heat shock protein 90 (HSP90).
# [2] = test system: Pt3R cells; test: RNA-seq gene expression profiling in Pt3R cells; type: cell-based, human
# Method: Pt3 GBM cells were isolated from a GBM patient as described in our previous study. Temozolomide (TMZ)-resistant phenotype of Pt3R cells had been validated previously. Pt3 cells were cultured in DMEM-supplemented with 10% fetal bovine serum, 100 μg/ml streptomycin and 100 μg/ml penicillin G. Pt3R cells were cultured in the presence of 100 μM of TMZ (MilliporeSigma Corporate, St. Louis, MO, USA).
# RNA was isolated using the RNA extracting kit (Zymo Research, Irvine, CA, USA), and subjected to RNA-seq serviced by BIOTOOLS Co., Ltd (New Taipei City, Taiwan). Cell pellets were collected and subjected to proteomic analysis serviced by BIOTOOLS Co., Ltd. The comparison in gene expression between Pt3 and Pt3R was performed using RNA seq, and has been described previously.
# To gain insights regarding the ability of dual inhibitor 7 to suppress the viability of TMZ-resistant GBM cells, RNA-seq to analyze gene expression profiles was performed.
# [3] = test system: Pt3R cells; test: Proliferation of Pt3R cells after treatment (FIG. 4A); type: cell-based, human; details: 2 μM, 48 h
# [4] = test system: Pt3R cells; test: Cellular ROS assay (DHR, flow cytometry) in Pt3R cells; type: cell-based, human; details: 48 h, FIG. 7A
# Excerpt: (§1) Dihydrorhodamine 123 (DHR; Thermo Fisher Scientific, Waltham, MA, USA) was used to label cellular ROS detected by flow cytometry, and the MitoSOX reagent (Thermo Fisher Scientific) was used to label mitochondrial ROS [55].
# (§2) Treatment concentration of MPT1A059 was indicated.
# [5] = test system: mitochondrial ROS; test: MitoSOX assay of mitochondrial ROS; type: cell-based
# Method: as §1
# Thus, the ability of compound 7 to disturb redox homeostasis in TMZ-resistant cells and attain amplified therapeutic efficacy for GBM was evaluated. In both Pt3 and Pt3R cells, treatment with compound 7 for 48 h increased the ROS level (FIG. 7A). […] Moreover, it was also observed that compound 7 increased mitochondria-derived ROS.
# as §2
# [6] = test system: Pt3R tumors; test: Growth of TMZ-resistant Pt3R tumors in mice; type: in vivo, NOD.CB17-Prkdc^scid/NCrCrl mice; details: 5 mg/kg twice weekly
# Method: NOD.CB17-Prkdc^scid/NCrCrl mice (8-week-old) were purchased from BioLASCO Taiwan Co., Ltd. (Taipei, Taiwan). Pt3R cells (1×10^6) in […] DMEM were injected onto the backs of mice. After 10 days, tumor was touchable. Mice were injected with DMSO (the control group) or MPT1A059 (5 mg/kg) twice per week.
# In-vivo anti-GBM efficacy of compound 7 was also evaluated in this study. For the in-vivo study, experimental NOD.CB17-Prkdc^scid/NCrCrl mice (8-week-old) were used and Pt3R cells (1×10^6) in […] DMEM were injected into the backs of mice. After 10 days, the tumor was detectable. Mice were injected with DMSO (the control group) or compound 7 (5 mg/kg) twice weekly. […] In a nutshell, the outcome of the in-vivo study ascertains that the remarkable in vitro anti-GBM activity profile of dual inhibitor 7 was translated to the in-vivo potential.
structure (smiles),measurement,setting,value
"CCN(c1cc(-c2cccc(N(C)C(=O)c3cc(C(C)C)c(O)cc3O)c2)cc(C(=O)NCc2c(C)cc(C)[nH]c2=O)c1C)C1CCOCC1 [Compound 7, 3′-(2,4-dihydroxy-5-isopropyl-N-methylbenzamido)-N-((4,6-dimethyl-2-oxo-1,2-dihydropyridin-3-yl)methyl)-5-(ethyl(tetrahydro-2H-pyran-4-yl)amino)-4-methyl-[1,1′-biphenyl]-3-carboxamide]",HSP90 inhibitory potential in words,[1],conferred HSP90 inhibitory potential
same,IC50,[1],60.1 nM
same,DNA repair capacity,[2],highly suppressed
same,"CENPF, CENPE, CENPA and CENPI (gene expression)",[2]; FIG. 5C,decreased
same,RBBP8 and BRCA1 gene expression,[2]; FIG. 6A,suppressed
same,expression of genes involved in processing DNA double-strand break and in homologous recombination,[2]; FIG. 6A,decreased
same,"expression of genes regulating homologous recombination (TOP2A, RAD54B, RAD21, EME1, BRIP1)",[2]; FIG. 6H,suppressed
same,cell division and DNA repair gene sets (GSEA),[2]; GSEA,highly suppressed
same,M phase/kinetochore/spindle-related gene expression,[2]; RNA-seq,decreased
same,apoptosis/necrosis-related gene expression,[2]; RNA-seq,increased
same,number of gene expressions decreased,"[2]; RNA-seq, 2 μM, 48 h",498
same,number of gene expressions increased,"[2]; RNA-seq, 2 μM, 48 h",297
same,cell proliferation,[3],significantly inhibited cell proliferation
same,ROS level,[4],increased
same,mitochondria-derived ROS,[5],increased
same,MitoSOX red signal representing ROS produced from mitochondria,[5]; FIG. 7C,remarkably enhanced
same,tumor size and weight compared to DMSO-treated mice,[6]; FIG. 8A,significantly smaller sizes and weights
same,tumor growth,[6]; FIG. 8B,tumor growth suppression ability

# — patent US20260365637A1, “DUAL EZH2-HSP90 INHIBITORS” (TAIPEI MEDICAL UNIVERSITY, priority 2023, published 2026)
